# Reference: patent US20060292243A1, “Arsenic compounds for the treatment of the arsenic-sensitive blast-cell related diseases” (priority 2005, published 2006)
# Where two headings read alike, the source gives them in different places.
# Legend:
# [1] = system: FCC1/NH strain of P. falciparum; experiment: Malaria inhibition test; assay type: cell-based
# Procedure: FCC1/NH strain (from Hainan, P.R.C.) of P. falciparum was used. The strain of the parasite was cultured by culture media mainly composed of RPMI-1640(GBCO), HEPES (GBCO), NaHCO3, and AB type serum. In a given experiment, Petri dish cultures were diluted with culture medium containing an amount of noninfected type B human erythrocytes to obtain a culture with a final parasitemia of about 1%. The resulting culture was ready for addition to microtitration plates with 96 flat-bottom wells.
# The final volume added to each of the 96-well microtitration plates was 200 μl, consisted of 20 μl of complete medium with or without the drug (arsenic trioxide) and 180 μl of the parasitized culture. The microtitration plates were incubated in 5% CO2 for an additional 48 hr, at 37 C. The suspensions were discarded and infection rate of RBC in each well was calculated by microscope examination after Giemsa staining. When drugs interfere, an inhibitory dose of 50% (IC50) and 90% (IC90) can be calculated. A series of experiments is shown below.
# The malaria inhibition experiment was performed in 4 lanes for each arsenic trioxide dose, and the initial infectious rate is 1.8%. After 48 hours of incubation, 5000 RBCs in each well were checked by microscope.
# Another malaria inhibition experiment was performed in 4 lanes for each arsenic trioxide dose, and the initial infectious rate is 1.5%. After 48 hours of incubation, 5000 RBCs in each well were checked by microscope.
# The other malaria inhibition experiment was performed in 12 lanes for each arsenic trioxide dose, and the initial infectious rate is 1.1%. After 48 hours of incubation, 5000 RBCs in each well were checked by microscope.
# The other malaria inhibition experiment was performed in 6 lanes for each arsenic trioxide dose, and the initial infectious rate is 1.1%. After 48 hours of incubation, 5000 RBCs in each well were checked by microscope.
# [2] = system: PBMCs (peripheral blood mononuclear cells); experiment: PI staining, cell death within all PBMCs by flowcytometry; assay type: cell-based
# Text: Arsenic trioxide (Asadin®) induces differentiation and apoptosis of malignant cells in vitro and in vivo and has been used in the treatment of a variety of hematological malignancies, the main goal of this example is to try to identify the apoptotic effect of arsenic trioxide on various PBMCs (peripheral blood mononuclear cells), and the methodologies used in this invention include:
# 1. The isolation procedure using Ficoll Plaque for exploiting the different densities of RBCs and PBMCs to separate them.
# 2. The detection of apoptosis by PI staining through flowcytometry.
# In the PI-based study, under different concentrations of arsenic trioxide (0, 0.5, 2.5, 5, or 10 μM), the percentages of cell death (within all PBMCs) in 24 hr and 48 hr were calculated respectively in Table 1.1.
# [3] = 0.031 uM, exp. 5.2.2, initial infectious rate 1.5%, 4 lanes, 48 hours
# [4] = 0.063 uM, exp. 5.2.2, initial infectious rate 1.5%, 4 lanes, 48 hours
# [5] = 0.125 uM, exp. 5.2.2, initial infectious rate 1.5%, 4 lanes, 48 hours
# [6] = 0.25 uM, exp. 5.2.1, initial infectious rate 1.8%, 4 lanes, 48 hours
# [7] = 0.25 uM, exp. 5.2.2, initial infectious rate 1.5%, 4 lanes, 48 hours
# [8] = 0.5 uM, exp. 5.2.1, initial infectious rate 1.8%, 4 lanes, 48 hours
# [9] = 0.5 uM, exp. 5.2.2, initial infectious rate 1.5%, 4 lanes, 48 hours
# [10] = 0.5 uM, exp. 5.2.3, initial infectious rate 1.1%, 12 lanes, 48 hours
# [11] = 0.5 uM, exp. 5.2.4, initial infectious rate 1.1%, 6 lanes, 48 hours
# [12] = 1.0 uM, exp. 5.2.1, initial infectious rate 1.8%, 4 lanes, 48 hours
# [13] = 1.0 uM, exp. 5.2.2, initial infectious rate 1.5%, 4 lanes, 48 hours
# [14] = 1.0 uM, exp. 5.2.3, initial infectious rate 1.1%, 12 lanes, 48 hours
# [15] = 1.0 uM, exp. 5.2.4, initial infectious rate 1.1%, 6 lanes, 48 hours
# [16] = 2.0 uM, exp. 5.2.1, initial infectious rate 1.8%, 4 lanes, 48 hours
# [17] = 2.0 uM, exp. 5.2.2, initial infectious rate 1.5%, 4 lanes, 48 hours
# [18] = 2.0 uM, exp. 5.2.3, initial infectious rate 1.1%, 12 lanes, 48 hours
# [19] = 2.0 uM, exp. 5.2.4, initial infectious rate 1.1%, 6 lanes, 48 hours
# [20] = 4.0 uM, exp. 5.2.1, initial infectious rate 1.8%, 4 lanes, 48 hours
# [21] = 4.0 uM, exp. 5.2.2, initial infectious rate 1.5%, 4 lanes, 48 hours
# [22] = 4.0 uM, exp. 5.2.3, initial infectious rate 1.1%, 12 lanes, 48 hours
# [23] = 4.0 uM, exp. 5.2.4, initial infectious rate 1.1%, 6 lanes, 48 hours
# [24] = 8.0 uM, exp. 5.2.1, initial infectious rate 1.8%, 4 lanes, 48 hours
# [25] = 8.0 uM, exp. 5.2.2, initial infectious rate 1.5%, 4 lanes, 48 hours
# [26] = 8.0 uM, exp. 5.2.3, initial infectious rate 1.1%, 12 lanes, 48 hours
# [27] = 8.0 uM, exp. 5.2.4, initial infectious rate 1.1%, 6 lanes, 48 hours
substance,measurement,setting,value
arsenic trioxide,Probability unit (Y),"[1]; 0.031 uM, exp. 5.2.2",4.1619
same,Infection rate (%),[1]; [3],79.9%
same,Inhibition rate (%),[1]; [3],20.1%
same,Probability unit (Y),"[1]; 0.063 uM, exp. 5.2.2",4.3659
same,Infection rate (%),[1]; [4],73.7%
same,Inhibition rate (%),[1]; [4],26.3%
same,Probability unit (Y),"[1]; 0.125 uM, exp. 5.2.2",4.5239
same,Infection rate (%),[1]; [5],68.3%
same,Inhibition rate (%),[1]; [5],31.7%
same,Probability unit (Y),"[1]; 0.25 uM, exp. 5.2.1",5.1942
same,Infection rate (%),[1]; [6],42.3%
same,Inhibition rate (%),[1]; [6],57.7%
same,Probability unit (Y),"[1]; 0.25 uM, exp. 5.2.2",4.8743
same,Infection rate (%),[1]; [7],54.9%
same,Inhibition rate (%),[1]; [7],45.1%
same,Probability unit (Y),"[1]; 0.5 uM, exp. 5.2.1",5.6903
same,Infection rate (%),[1]; [8],24.5%
same,Inhibition rate (%),[1]; [8],75.5%
same,Probability unit (Y),"[1]; 0.5 uM, exp. 5.2.2",5.1408
same,Infection rate (%),[1]; [9],44.4%
same,Inhibition rate (%),[1]; [9],55.6%
same,Probability unit (Y),"[1]; 0.5 uM, exp. 5.2.3",5.6008
same,Infection rate (%),[1]; [10],27.4%
same,Inhibition rate (%),[1]; [10],72.6%
same,Probability unit (Y),"[1]; 0.5 uM, exp. 5.2.4",5.6903
same,Infection rate (%),[1]; [11],24.5%
same,Inhibition rate (%),[1]; [11],75.5%
same,Probability unit (Y),"[1]; 1.0 uM, exp. 5.2.1",5.8596
same,Infection rate (%),[1]; [12],19.5%
same,Inhibition rate (%),[1]; [12],80.5%
same,Probability unit (Y),"[1]; 1.0 uM, exp. 5.2.2",5.9192
same,Infection rate (%),[1]; [13],17.9%
same,Inhibition rate (%),[1]; [13],82.1%
same,Probability unit (Y),"[1]; 1.0 uM, exp. 5.2.3",5.1311
same,Infection rate (%),[1]; [14],12.9%
same,Inhibition rate (%),[1]; [14],87.1%
same,Probability unit (Y),"[1]; 1.0 uM, exp. 5.2.4",6.0027
same,Infection rate (%),[1]; [15],15.7%
same,Inhibition rate (%),[1]; [15],84.3%
same,Probability unit (Y),"[1]; 2.0 uM, exp. 5.2.1",6.0939
same,Infection rate (%),[1]; [16],13.7%
same,Inhibition rate (%),[1]; [16],86.3%
same,Probability unit (Y),"[1]; 2.0 uM, exp. 5.2.2",6.1311
same,Infection rate (%),[1]; [17],12.9%
same,Inhibition rate (%),[1]; [17],87.1%
same,Probability unit (Y),"[1]; 2.0 uM, exp. 5.2.3",6.3722
same,Infection rate (%),[1]; [18],8.5%
same,Inhibition rate (%),[1]; [18],91.5%
same,Probability unit (Y),"[1]; 2.0 uM, exp. 5.2.4",6.3408
same,Infection rate (%),[1]; [19],9.0%
same,Inhibition rate (%),[1]; [19],91.0%
same,Probability unit (Y),"[1]; 4.0 uM, exp. 5.2.1",6.3225
same,Infection rate (%),[1]; [20],9.3%
same,Inhibition rate (%),[1]; [20],90.7%
same,Probability unit (Y),"[1]; 4.0 uM, exp. 5.2.2",6.2160
same,Infection rate (%),[1]; [21],11.2%
same,Inhibition rate (%),[1]; [21],88.8%
same,Probability unit (Y),"[1]; 4.0 uM, exp. 5.2.3",6.7866
same,Infection rate (%),[1]; [22],3.6%
same,Inhibition rate (%),[1]; [22],96.3%
same,Probability unit (Y),"[1]; 4.0 uM, exp. 5.2.4",6.7507
same,Infection rate (%),[1]; [23],4.0%
same,Inhibition rate (%),[1]; [23],96.0%
same,Probability unit (Y),"[1]; 8.0 uM, exp. 5.2.1",6.4909
same,Infection rate (%),[1]; [24],6.8%
same,Inhibition rate (%),[1]; [24],93.2%
same,Probability unit (Y),"[1]; 8.0 uM, exp. 5.2.2",6.6352
same,Infection rate (%),[1]; [25],5.1%
same,Inhibition rate (%),[1]; [25],94.9%
same,Probability unit (Y),"[1]; 8.0 uM, exp. 5.2.3",7.0537
same,Infection rate (%),[1]; [26],2.0%
same,Inhibition rate (%),[1]; [26],98.0%
same,Probability unit (Y),"[1]; 8.0 uM, exp. 5.2.4",7.0749
same,Infection rate (%),[1]; [27],1.9%
same,Inhibition rate (%),[1]; [27],98.1%
same,IC50,"[1]; exp. 5.2.1, initial infectious rate 1.8%, 48 hours, read-out: IC50",100 nM
same,IC90,"[1]; exp. 5.2.1, initial infectious rate 1.8%, 48 hours, read-out: IC90",3680 nM
same,IC50,"[1]; exp. 5.2.1, 95% confidence limit 11.43˜34.2 ng/ml",0.01978 µg/mL
same,IC90,"[1]; exp. 5.2.1, 95% confidence limit 420.84˜1259.53 ng/ml",0.72805 µg/mL
same,IC50,"[1]; exp. 5.2.2, initial infectious rate 1.5%, 48 hours, read-out: IC50",250 nM
same,IC90,"[1]; exp. 5.2.2, initial infectious rate 1.5%, 48 hours, read-out: IC90",3730 nM
same,IC50,"[1]; exp. 5.2.2, 95% confidence limit 28.00˜86.73 ng/ml",0.04928 µg/mL
same,IC90,"[1]; exp. 5.2.2, 95% confidence limit 419.28˜1298.77 ng/ml",0.73794 µg/mL
same,IC50,"[1]; exp. 5.2.3, initial infectious rate 1.1%, 12 lanes, 48 hours, read-out: IC50",130 nM
same,IC90,"[1]; exp. 5.2.3, initial infectious rate 1.1%, 12 lanes, 48 hours, read-out: IC90",960 nM
same,IC50,"[1]; exp. 5.2.3, 95% confidence limit 18.91˜34.9 ng/ml",0.02572 µg/mL
same,IC90,"[1]; exp. 5.2.3, 95% confidence limit 139.65˜258.3 ng/ml",0.18993 µg/mL
same,IC90,"[1]; exp. 5.2.4, initial infectious rate 1.1%, 6 lanes, 48 hours, read-out: IC90",2090 nM
same,IC50,"[1]; exp. 5.2.4, 95% confidence limit 40.32˜99.4 ng/ml",0.06331 µg/mL
same,IC90,"[1]; exp. 5.2.4, 95% confidence limit printed 263.06˜258.30 ng/ml",0.41348 µg/mL
same,24 hr % cell death,[2]; 0.5 μM,7.3 ± 1.2%
same,48 hr % cell death,[2]; 0.5 μM,7.6 ± 0.6%
same,24 hr % cell death,[2]; 2.5 μM,13.7 ± 1.6%
same,48 hr % cell death,[2]; 2.5 μM,15.2 ± 2.3%
same,24 hr % cell death,[2]; 5.0 μM,14.6 ± 2.1%
same,48 hr % cell death,[2]; 5.0 μM,17.2 ± 1.9%
same,24 hr % cell death,[2]; 10 μM,17.8 ± 1.8%
same,48 hr % cell death,[2]; 10 μM,20.3 ± 2.6%
